The target of this experiment is Recombinant human liver glucokinase (Homo sapiens (Human), UniProt P35557). Kind of experiment: Glucokinase activation assay (G6PDH-coupled, Thio-NADH absorbance at 405 nm). The experiment is classed as biochemical. Conditions: for EC50: 30° C. An excerpt:
The glucokinase activity can, for instance, be determined without directly measuring glucose-6-phosphate by measuring the amount of Thio-NADH generated during the production of phosphogluconolactone from glucose-6-phosphate by a reporter enzyme glucose-6-phosphate dehydrogenase.
To test the exemplified compounds, the following assay was employed. Recombinant human liver glucokinase was expressed as a FLAG fusion protein in E. coli, and purified on […] M2 AFFINITY GEL (Sigma). The assay was carried out at 30° C. in a 96-well plate. In the plate was distributed 69 μl each of assay buffer (25 mM Hepes Buffer: pH=7.2, 2 mM MgCl2, 1 mM ATP, 0.5 mM TNAD, 1 mM dithiothreitol), to which was added 1 μl of a DMSO solution of the compound or DMSO as control. Then, 20 μl of pre-ice-cooled enzyme mixture (FLAG-GK, 20 U/ml G6PDH) was distributed thereto, to which was added 10 μl of 25 mM glucose as substrate to initiate the reaction (final glucose concentration=2.5 mM). After starting the reaction, the absorbance at 405 nm was measured every 30 seconds for 10 minutes to evaluate the compound based on the initial increase for 5 minutes. FLAG-GK was added so that the increase of absorbance after 5 minutes fell between 0.05 to 0.1 in the presence of 1% DMSO.
The OD values of the respective compounds were measured in the respective concentrations, wherein the OD value of DMSO as control is regarded as 100%.

Structures are written as SMILES. Like-named read-outs stand apart in the source and are kept apart here.

Emax and EC50 data for 25 compounds are collected here from patent US9527838B2, “2-pyridinecarboxamide derivatives, compositions containing such compounds, and methods of treatment” (priority 2012, dated 2016).

Usually Emax stands for the maximal effect, on the per cent scale that the assay sets. The term EC50 denotes the concentration that produces a half-maximal response.

Recombinant human liver glucokinase, sequence (P35557 other isoform, or with tags, fused parts or gaps): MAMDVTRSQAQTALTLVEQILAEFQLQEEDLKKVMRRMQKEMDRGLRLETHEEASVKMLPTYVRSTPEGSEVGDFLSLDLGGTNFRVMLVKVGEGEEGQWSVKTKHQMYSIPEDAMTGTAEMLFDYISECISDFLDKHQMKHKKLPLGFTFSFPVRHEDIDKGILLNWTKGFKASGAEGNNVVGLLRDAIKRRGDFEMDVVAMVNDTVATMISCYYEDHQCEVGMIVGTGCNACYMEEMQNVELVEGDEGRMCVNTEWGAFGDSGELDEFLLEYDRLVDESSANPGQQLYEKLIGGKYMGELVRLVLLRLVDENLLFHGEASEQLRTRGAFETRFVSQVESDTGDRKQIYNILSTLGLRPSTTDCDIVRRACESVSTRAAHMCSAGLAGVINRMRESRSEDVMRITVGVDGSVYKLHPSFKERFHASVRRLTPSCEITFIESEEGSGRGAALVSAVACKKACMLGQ

Consider `CCOC(=O)CSc1cnc(NC(=O)c2nc(Sc3nncn3C)ccc2Sc2ccc(OC)cc2)s1` [Example 1, Ethyl ({2-[({3-[(4-methoxyphenyl)sulfanyl]-6-[(4-methyl-4H-1,2,4-triazol-3-yl)sulfanyl]pyridin-2-yl}carbonyl)amino]-1,3-thiazol-5-yl}sulfanyl)acetate], for which the Emax amounted to 471%. Besides, the concentration for a half-maximal effect (EC50) (2.5 mM Glu) is 7.5 nM. Regarding `COc1ccc(Sc2ccc(Sc3nncn3C)nc2C(=O)Nc2ncc(SCC(=O)O)s2)cc1` [Example 2, ({2-[({3-[(4-methoxyphenyl)sulfanyl]-6-[(4-methyl-4H-1,2,4-triazol-3-yl)sulfanyl]pyridin-2-yl}carbonyl)amino]-1,3-thiazol-5-yl}sulfanyl)acetic acid], the Emax worked out at 446%. The EC50 (2.5 mM Glu) was determined as 56.8 nM.

As for `CNC(=O)CSc1cnc(NC(=O)c2nc(Sc3nncn3C)ccc2Sc2ccc(OC)cc2)s1` [Example 3, 3-[(4-methoxyphenyl)sulfanyl]-N-(5-{[2-(methylamino)-2-oxoethyl]sulfanyl}-1,3-thiazol-2-yl)-6-[(4-methyl-4H-1,2,4-triazol-3-yl)sulfanyl]pyridine-2-carboxamide], the Emax came to 572%. Also, the EC50 (2.5 mM Glu) was determined as 10.8 nM. Consider `COc1ccc(Sc2ccc(Sc3nncn3C)nc2C(=O)Nc2ncc(SC(C)(C)C(=O)O)s2)cc1` [Example 4, 2-({2-[({3-[(4-methoxyphenyl)sulfanyl]-6-[(4-methyl-4H-1,2,4-triazol-3-yl)sulfanyl]pyridin-2-yl}carbonyl)amino]-1,3-thiazol-5-yl}sulfanyl)-2-methylpropanoic acid], for which the Emax worked out at 417%. Where the note is “2.5 mM Glu”, the EC50 was 65.1 nM. Regarding `CCOC(=O)C(C)(C)CSc1cnc(NC(=O)c2nc(Sc3nncn3C)ccc2Sc2ccc(OC)cc2)s1` [Example 5, Ethyl 3-({2-[({3-[(4-methoxyphenyl)sulfanyl]-6-[(4-methyl-4H-1,2,4-triazol-3-yl)sulfanyl]pyridin-2-yl}carbonyl)amino]-1,3-thiazol-5-yl}sulfanyl)-2,2-dimethylpropanoate], the Emax is 490%. Also, the EC50 (2.5 mM Glu) was determined as 14.3 nM. With `COc1ccc(Sc2ccc(Sc3nncn3C)nc2C(=O)Nc2ncc(SCC(C)(C)C(=O)O)s2)cc1` [Example 6, 3-({2-[({3-[(4-methoxyphenyl)sulfanyl]-6-[(4-methyl-4H-1,2,4-triazol-3-yl)sulfanyl]pyridin-2-yl}carbonyl)amino]-1,3-thiazol-5-yl}sulfanyl)-2,2-dimethylpropanoic acid], the Emax came to 425%. Further, the EC50 (2.5 mM Glu) is 16 nM. `COC(=O)CCc1cnc(NC(=O)c2nc(Sc3nncn3C)ccc2Sc2ccc(OC)cc2)s1` [Example 7, Methyl 3-{2-[({3-[(4-methoxyphenyl)sulfanyl]-6-[(4-methyl-4H-1,2,4-triazol-3-yl)sulfanyl]pyridin-2-yl}carbonyl)amino]-1,3-thiazol-5-yl}propanoate]: the maximum response (Emax) was determined as 550%. Also, where the note is “2.5 mM Glu”, the EC50 stood at 23.4 nM.

For the compound `COc1ccc(Sc2ccc(Sc3nncn3C)nc2C(=O)Nc2ncc(CCC(=O)O)s2)cc1` [Example 8, 3-{2-[({3-[(4-Methoxyphenyl)sulfanyl]-6-[(4-methyl-4H-1,2,4-triazol-3-yl)sulfanyl]pyridin-2-yl}carbonyl)amino]-1,3-thiazol-5-yl}propanoic acid], the Emax came out at 626%. Further, the EC50 (2.5 mM Glu) is 58.7 nM. As for `COc1ccc(Sc2ccc(Sc3nncn3C)nc2C(=O)Nc2ccc(CC(N)=O)cc2)cc1` [Example 9, N-[4-(2-Amino-2-oxoethyl)phenyl]-3-[(4-methoxyphenyl)sulfanyl]-6-[(4-methyl-4H-1,2,4-triazol-3-yl)sulfanyl]pyridine-2-carboxamide], the Emax was 191%. For the same compound, the EC50 (2.5 mM Glu) worked out at 1890 nM.

Turning to `CCOC(=O)CSc1cnc(NC(=O)c2nc(Sc3ccccn3)ccc2Sc2ccc(OC)cc2)s1` [Example 10, Ethyl ({2-[({3-[(4-methoxyphenyl)sulfanyl]-6-(pyridin-2-ylsulfanyl)pyridin-2-yl}carbonyl)amino]-1,3-thiazol-5-yl}sulfanyl)acetate], the EC50 (2.5 mM Glu) is 35.2 nM. The Emax (2.5 mM Glu, OD value of DMSO as control regarded as 100%, read-out: Emax) came out at 498%. With `COc1ccc(Sc2ccc(Sc3ccccn3)nc2C(=O)Nc2ncc(SCC(=O)O)s2)cc1` [Example 11, ({2-[({3-[(4-Methoxyphenyl)sulfanyl]-6-(pyridin-2-ylsulfanyl)pyridin-2-yl}carbonyl)amino]-1,3-thiazol-5-yl}sulfanyl)acetic acid], the Emax came out at 509%. Also, the EC50 (2.5 mM Glu) worked out at 10.9 nM. Consider `CCOC(=O)Cc1nc(NC(=O)c2nc(Sc3ccccn3)ccc2Sc2ccc(OC)cc2)sc1Cl` [Example 12], for which the Emax turned out to be 427%. In addition, the concentration giving a half-maximal response (EC50) (2.5 mM Glu) is 47.6 nM. In the same order, the values of `COc1ccc(Sc2ccc(Sc3ccccn3)nc2C(=O)Nc2nc(CC(=O)O)c(Cl)s2)cc1` [Example 13, {5-Chloro-2-[({3-[(4-methoxyphenyl)sulfanyl]-6-(pyridin-2-ylsulfanyl)pyridin-2-yl}carbonyl)amino]-1,3-thiazol-4-yl}acetic acid] are 584% and 9 nM. Consider `COC(=O)CCc1cnc(NC(=O)c2nc(Sc3ccccn3)ccc2Sc2ccc(OC)cc2)s1` [Example 14, Methyl 3-{2-[({3-[(4-methoxyphenyl)sulfanyl]-6-(pyridin-2-ylsulfanyl)pyridin-2-yl}carbonyl)amino]-1,3-thiazol-5-yl}propanoate], for which the Emax was 486%. Moreover, the EC50 (2.5 mM Glu) came out at 290 nM. Take `COc1ccc(Sc2ccc(Sc3ccccn3)nc2C(=O)Nc2ncc(CCC(=O)O)s2)cc1` [Example 15, 3-{2-[({3-[(4-Methoxyphenyl)sulfanyl]-6-(pyridin-2-ylsulfanyl)pyridin-2-yl}carbonyl)amino]-1,3-thiazol-5-yl}propanoic acid]: the Emax came out at 645%. Moreover, the EC50 (2.5 mM Glu) came to 140 nM. Consider `CCOC(=O)Cc1csc(NC(=O)c2nc(Sc3ccccn3)ccc2Sc2ccc(OC)cc2)n1` [Example 16, Ethyl {2-[({3-[(4-methoxyphenyl)sulfanyl]-6-(pyridin-2-ylsulfanyl)pyridin-2-yl}carbonyl)amino]-1,3-thiazol-4-yl}acetate], for which the Emax is 524%. Moreover, the EC50 (2.5 mM Glu) was found to be 275 nM.

In the case of `COc1ccc(Sc2ccc(Sc3ccccn3)nc2C(=O)Nc2nc(CC(=O)O)cs2)cc1` [Example 17, {2-[({3-[(4-Methoxyphenyl)sulfanyl]-6-(pyridin-2-ylsulfanyl)pyridin-2-yl}carbonyl)amino]-1,3-thiazol-4-yl}acetic acid], the Emax was found to be 698%. For the setting “2.5 mM Glu”, the EC50 is 106 nM. Regarding `Cn1cnnc1Sc1ccc(Sc2ccc(F)cc2)c(C(=O)Nc2ncc(SCC(=O)O)s2)n1` [Example 19, ({2-[({3-[(4-Fluorophenyl)sulfanyl]-6-[(4-methyl-4H-1,2,4-triazol-3-yl)sulfanyl]pyridin-2-yl}carbonyl)amino]-1,3-thiazol-5-yl}sulfanyl)acetic acid], the Emax was 426%. Moreover, the EC50 (2.5 mM Glu) stood at 23.1 nM. On to `CCOC(=O)C(C)(C)CSc1cnc(NC(=O)c2nc(Sc3nncn3C)ccc2Sc2ccc(F)cc2)s1` [Example 20], for which the Emax turned out to be 460%. With `Cn1cnnc1Sc1ccc(Sc2ccc(F)cc2)c(C(=O)Nc2ncc(SCC(C)(C)C(=O)O)s2)n1` [Example 21, 3-({2-[({3-[(4-Fluorophenyl)sulfanyl]-6-[(4-methyl-4H-1,2,4-triazol-3-yl)sulfanyl]pyridin-2-yl}carbonyl)amino]-1,3-thiazol-5-yl}sulfanyl)-2,2-dimethylpropanoic acid], the Emax came out at 473%. The EC50 (2.5 mM Glu) is 17.2 nM. For `CCOC(=O)Cc1nc(NC(=O)c2nc(Sc3nncn3C)ccc2Sc2ccc(F)cc2)sc1Cl` [Example 24, Ethyl {5-chloro-2-[({3-[(4-fluorophenyl)sulfanyl]-6-[(4-methyl-4H-1,2,4-triazol-3-yl)sulfanyl]pyridin-2-yl}carbonyl)amino]-1,3-thiazol-4-yl}acetate], the Emax is 378%. Besides, the EC50 (2.5 mM Glu) turned out to be 8 nM. `Cn1cnnc1Sc1ccc(Sc2ccc(F)cc2)c(C(=O)Nc2nc(CC(=O)O)c(Cl)s2)n1` [Example 25, {5-Chloro-2-[({3-[(4-fluorophenyl)sulfanyl]-6-[(4-methyl-4H-1,2,4-triazol-3-yl)sulfanyl]pyridin-2-yl}carbonyl)amino]-1,3-thiazol-4-yl}acetic acid]: the Emax was 525%. For the same compound, the EC50 (2.5 mM Glu) amounted to 18.6 nM. In the same order, the values of `CCOP(=O)(Cc1cnc(NC(=O)c2nc(Sc3nncn3C)ccc2Sc2ccc(F)cc2)s1)OCC` [Example 26, Diethyl ({2-[({3-[(4-fluorophenyl)sulfanyl]-6-[(4-methyl-4H-1,2,4-triazol-3-yl)sulfanyl]pyridin-2-yl}carbonyl)amino]-1,3-thiazol-5-yl}methyl)phosphonate] are 377% and 136 nM. Consider `CCOC(=O)CSc1cnc(NC(=O)c2nc(Sc3ccc(F)cc3)ccc2Sc2ccc(F)cc2)s1` [Example 27], for which the maximum response (Emax) is 182%.

On to `O=C(O)CSc1cnc(NC(=O)c2nc(Sc3ccc(F)cc3)ccc2Sc2ccc(F)cc2)s1` [Example 28, ({2-[({3,6-Bis[(4-fluorophenyl)sulfanyl]pyridin-2-yl}carbonyl)amino]-1,3-thiazol-5-yl}sulfanyl)acetic acid], for which the Emax was found to be 343%. Further, the EC50 (2.5 mM Glu) is 172 nM.
